The target in one experiment is human recombinant FGFR1 (Homo sapiens, UniProt P11362). Kind of experiment: FGFR family enzymatic activity assay (Caliper-based kinase assay), FGFR1. Format: biochemical. The note with it: FGFR1 0.5 nM, ATP 100 μM, peptide substrate 1 μM, room temperature 3 h. From the text: (§1) A Caliper-based kinase assay (Caliper Life Sciences, Hopkinton, Mass.) was used to measure inhibition of FGFR family (FGFR1, FGFR2, FGFR3, FGFR4) kinase activity of a compound of Formula (I′) or (I). […] This value is presented as the IC50.

The target of another experiment is human recombinant FGFR3 (Homo sapiens, UniProt P22607). Kind of experiment: FGFR family enzymatic activity assay (Caliper-based kinase assay), FGFR3. Format: biochemical. The note with it: FGFR3 0.9 nM, ATP 120 μM, peptide substrate 1 μM, room temperature 3 h.
Text: as §1

For the next experiment, the system named is SNU-16 cells. The experiment can be described thus: Inhibition of FGFR2-dependent cell growth (Cell-titer Glo). The note with it: Homo sapiens, SNU16 cells, 72 hrs incubation, cell viability by Cell-titer Glo. Format: cell-based. As for the experimental part: The cell-based effects of FGFR inhibitors were determined by measuring inhibition of FGFR-dependent cell line growth. […] Percent inhibition of cell growth was calculated as a percentage of untreated cell viability. The percent inhibition was plotted as a function of log compound concentration. The IC50 was then calculated for each compound using Prism software from GraphPad.

For a further experiment, the target named is human recombinant FGFR2 (Homo sapiens, UniProt P21802). The experiment can be described thus: FGFR family enzymatic activity assay (Caliper-based kinase assay), FGFR2. Format: biochemical. As to conditions: FGFR2 0.1 nM, ATP 75 μM, peptide substrate 1 μM, room temperature 3 h.
Text: as §1

For a further experiment, the target named is human recombinant FGFR4 (Homo sapiens, UniProt P22455). The experiment can be described thus: FGFR family enzymatic activity assay (Caliper-based kinase assay), FGFR4. Format: biochemical. As to conditions: FGFR4 2 nM, ATP 250 μM, peptide substrate 1 μM, room temperature 3 h.
Text: as §1

Chain of human recombinant FGFR1 (P11362 22-822): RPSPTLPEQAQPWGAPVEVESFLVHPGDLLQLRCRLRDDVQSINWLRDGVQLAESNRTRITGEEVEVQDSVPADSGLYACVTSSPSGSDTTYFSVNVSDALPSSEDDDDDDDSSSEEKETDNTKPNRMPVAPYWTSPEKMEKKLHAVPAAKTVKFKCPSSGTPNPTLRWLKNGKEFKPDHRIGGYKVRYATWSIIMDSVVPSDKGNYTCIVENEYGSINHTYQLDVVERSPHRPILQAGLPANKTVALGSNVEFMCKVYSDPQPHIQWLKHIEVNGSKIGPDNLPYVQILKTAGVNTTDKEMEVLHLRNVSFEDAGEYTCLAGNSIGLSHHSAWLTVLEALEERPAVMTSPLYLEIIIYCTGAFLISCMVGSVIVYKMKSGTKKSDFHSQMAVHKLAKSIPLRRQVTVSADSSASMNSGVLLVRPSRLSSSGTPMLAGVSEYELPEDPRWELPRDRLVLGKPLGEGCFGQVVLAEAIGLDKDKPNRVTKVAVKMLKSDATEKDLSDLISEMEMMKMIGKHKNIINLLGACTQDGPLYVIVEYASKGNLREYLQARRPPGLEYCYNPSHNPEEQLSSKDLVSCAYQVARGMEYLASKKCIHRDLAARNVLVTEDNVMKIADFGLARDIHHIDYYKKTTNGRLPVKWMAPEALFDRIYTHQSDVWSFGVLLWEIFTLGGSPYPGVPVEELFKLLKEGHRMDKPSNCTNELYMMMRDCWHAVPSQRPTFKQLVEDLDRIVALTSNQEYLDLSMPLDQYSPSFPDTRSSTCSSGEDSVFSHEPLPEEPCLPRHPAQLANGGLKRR
Chain of human recombinant FGFR2 (P21802 22-821): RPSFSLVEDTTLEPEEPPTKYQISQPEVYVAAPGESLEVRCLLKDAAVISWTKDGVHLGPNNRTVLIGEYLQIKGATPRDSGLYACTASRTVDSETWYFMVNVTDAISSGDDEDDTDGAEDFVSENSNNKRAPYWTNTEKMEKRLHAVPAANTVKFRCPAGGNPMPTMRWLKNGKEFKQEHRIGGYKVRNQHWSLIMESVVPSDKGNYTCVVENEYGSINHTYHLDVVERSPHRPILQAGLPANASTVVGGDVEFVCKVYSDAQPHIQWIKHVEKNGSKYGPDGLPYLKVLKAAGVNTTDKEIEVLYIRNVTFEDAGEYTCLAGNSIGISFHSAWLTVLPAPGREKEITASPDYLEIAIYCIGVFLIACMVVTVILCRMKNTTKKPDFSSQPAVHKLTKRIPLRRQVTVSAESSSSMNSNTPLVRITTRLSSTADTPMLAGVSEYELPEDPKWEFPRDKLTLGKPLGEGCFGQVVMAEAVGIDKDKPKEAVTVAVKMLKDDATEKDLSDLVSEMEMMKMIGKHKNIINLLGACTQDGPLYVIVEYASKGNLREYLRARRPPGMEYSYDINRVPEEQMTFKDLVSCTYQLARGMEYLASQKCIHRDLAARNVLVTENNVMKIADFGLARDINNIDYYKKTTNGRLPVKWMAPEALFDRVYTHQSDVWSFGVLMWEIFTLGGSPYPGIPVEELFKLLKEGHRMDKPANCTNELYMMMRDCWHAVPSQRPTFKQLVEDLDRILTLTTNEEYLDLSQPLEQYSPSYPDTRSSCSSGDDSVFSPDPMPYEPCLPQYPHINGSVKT
Chain of human recombinant FGFR3 (P22607 23-806): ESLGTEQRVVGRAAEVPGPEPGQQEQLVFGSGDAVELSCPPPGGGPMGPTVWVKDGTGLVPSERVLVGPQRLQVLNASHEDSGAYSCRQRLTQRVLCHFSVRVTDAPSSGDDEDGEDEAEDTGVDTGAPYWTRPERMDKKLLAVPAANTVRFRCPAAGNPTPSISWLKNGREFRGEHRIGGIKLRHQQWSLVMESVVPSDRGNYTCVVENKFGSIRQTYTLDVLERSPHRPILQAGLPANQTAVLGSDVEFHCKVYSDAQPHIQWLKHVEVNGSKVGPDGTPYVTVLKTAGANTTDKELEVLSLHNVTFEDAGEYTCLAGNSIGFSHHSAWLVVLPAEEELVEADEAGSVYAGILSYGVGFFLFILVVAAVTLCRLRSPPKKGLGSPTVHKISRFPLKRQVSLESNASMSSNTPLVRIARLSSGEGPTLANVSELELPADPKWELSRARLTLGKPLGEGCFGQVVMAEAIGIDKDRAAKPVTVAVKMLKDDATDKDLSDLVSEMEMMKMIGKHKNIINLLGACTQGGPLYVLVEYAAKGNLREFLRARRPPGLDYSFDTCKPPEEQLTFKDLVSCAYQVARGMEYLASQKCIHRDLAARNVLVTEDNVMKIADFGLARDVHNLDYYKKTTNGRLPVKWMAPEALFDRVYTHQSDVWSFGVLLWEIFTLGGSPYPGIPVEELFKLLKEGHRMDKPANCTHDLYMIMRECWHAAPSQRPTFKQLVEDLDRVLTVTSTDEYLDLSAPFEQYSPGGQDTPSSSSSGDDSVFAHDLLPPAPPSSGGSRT
Chain of human recombinant FGFR4 (P22455 22-802): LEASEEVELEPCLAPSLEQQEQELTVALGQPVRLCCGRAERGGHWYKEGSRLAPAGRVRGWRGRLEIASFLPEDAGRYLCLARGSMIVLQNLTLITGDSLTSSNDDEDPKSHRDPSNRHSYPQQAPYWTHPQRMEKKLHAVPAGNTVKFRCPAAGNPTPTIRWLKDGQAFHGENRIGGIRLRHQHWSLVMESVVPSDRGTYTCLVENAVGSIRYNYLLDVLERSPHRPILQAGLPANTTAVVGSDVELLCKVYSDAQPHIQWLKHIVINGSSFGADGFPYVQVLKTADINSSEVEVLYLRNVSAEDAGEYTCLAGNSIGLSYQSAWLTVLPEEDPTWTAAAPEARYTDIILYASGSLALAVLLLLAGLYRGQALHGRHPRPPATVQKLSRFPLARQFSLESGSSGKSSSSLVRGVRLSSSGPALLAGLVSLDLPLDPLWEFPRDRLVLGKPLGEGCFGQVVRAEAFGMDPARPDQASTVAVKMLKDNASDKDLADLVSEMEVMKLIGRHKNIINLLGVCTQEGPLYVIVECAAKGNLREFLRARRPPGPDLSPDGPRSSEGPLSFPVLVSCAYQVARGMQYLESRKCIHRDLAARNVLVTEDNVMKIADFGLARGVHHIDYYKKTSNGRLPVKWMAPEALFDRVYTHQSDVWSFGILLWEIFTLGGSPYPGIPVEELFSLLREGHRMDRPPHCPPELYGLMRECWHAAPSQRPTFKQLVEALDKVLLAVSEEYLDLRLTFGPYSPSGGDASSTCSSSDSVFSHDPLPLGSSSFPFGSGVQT

With `C=CC(=O)Nc1cccc(CCn2c(=O)c(-c3cc(OC)cc(OC)c3)cc3cnc(NC)nc32)c1` [Example 8, N-(3-(2-(6-(3,5-dimethoxyphenyl)-2-(methylamino)-7-oxopyrido[2,3-d]pyrimidin-8(7H)-yl)ethyl)phenyl)acrylamide], the IC50 (as a rule, the midpoint of a concentration-inhibition curve) on human recombinant FGFR1 was 31.2 nM; at human recombinant FGFR3 it was 19 nM; with SNU-16 cells, 83 nM.
As to `C=CC(=O)Nc1ccc(CCn2c(=O)c(-c3cc(OC)cc(OC)c3Cl)cc3cnc(NC)nc32)cc1` [Example 13, N-(4-(2-(6-(2-chloro-3,5-dimethoxyphenyl)-2-(methylamino)-7-oxopyrido[2,3-d]pyrimidin-8(7H)-yl)ethyl)phenyl)acrylamide], the figures for the IC50 at human recombinant FGFR2, on human recombinant FGFR3 and at human recombinant FGFR4 were 1.4 nM, 2.3 nM and 25.6 nM, respectively.
Turning to `C=CC(=O)Nc1ccc(CCn2c(=O)c(-c3cc(OC)cc(OC)c3Cl)cc3cnc(NC)nc32)cn1` [Example 16, N-(5-(2-(6-(2-chloro-3,5-dimethoxyphenyl)-2-(methylamino)-7-oxopyrido[2,3-d]pyrimidin-8(7H)-yl)ethyl)pyridin-2-yl)acrylamide], the IC50 at human recombinant FGFR2 was determined as 1.7 nM; at human recombinant FGFR3, 2.3 nM; at human recombinant FGFR4, 6.9 nM.
Consider `C=CC(=O)Nc1ccc(CCn2c(=O)c(-c3cc(OC)cc(OC)c3Cl)cc3cnc(NCCN4CCN(C(C)=O)CC4)nc32)cc1` [Example 66, N-(4-(2-(2-((2-(4-acetylpiperazin-1-yl)ethyl)amino)-6-(2-chloro-3,5-dimethoxy-phenyl)-7-oxopyrido[2,3-d]pyrimidin-8(7H)-yl)ethyl)phenyl)acrylamide], for which the IC50 turned out to be 2 nM on human recombinant FGFR2, 6.3 nM on human recombinant FGFR3 and 41 nM on human recombinant FGFR4.
As for `C=CC(=O)Nc1ccc(CCn2c(=O)c(-c3cc(OC)cc(OC)c3Cl)cc3cnc(NCCO)nc32)cc1` [Example 69, N-(4-(2-(6-(2-chloro-3,5-dimethoxyphenyl)-2-((2-hydroxyethyl)amino)-7-oxopyrido[2,3-d]pyrimidin-8(7H)-yl)ethyl)phenyl)acrylamide], the results for the IC50 at human recombinant FGFR2, on human recombinant FGFR3 and on human recombinant FGFR4 were 2 nM, 6 nM and 42.4 nM, respectively.
In the case of `C=CC(=O)Nc1ccc(CCn2c(=O)c(-c3c(Cl)c(OC)cc(OC)c3Cl)cc3cnc(NCC(O)CO)nc32)nc1` (centres unmarked) [Example 88, N-(6-(2-(6-(2,6-dichloro-3,5-dimethoxyphenyl)-2-((2,3-dihydroxypropyl)amino)-7-oxopyrido[2,3-d]pyrimidin-8(7H)-yl)ethyl)pyridin-3-yl)acrylamide], the IC50 at human recombinant FGFR1 amounted to 0.6 nM; in the experiment with SNU-16 cells, 24.6 nM.
As for `C=CC(=O)Nc1ccc(CCn2c(=O)c(-c3c(Cl)c(OC)cc(OC)c3Cl)cc3cnc(NC4CCOCC4)nc32)cc1` [Example 89, N-(4-(2-(6-(2,6-dichloro-3,5-dimethoxyphenyl)-7-oxo-2-((tetrahydro-2H-pyran-4-yl)amino)pyrido[2,3-d]pyrimidin-8(7H)-yl)ethyl)phenyl)acrylamide], the IC50 at human recombinant FGFR1 worked out at 0.2 nM; in the experiment with SNU-16 cells, 4.8 nM.
`C=CC(=O)Nc1ccc(CCn2c(=O)c(-c3c(Cl)c(OC)cc(OC)c3Cl)cc3cnc(NCC4CC4)nc32)cc1` [Example 90, N-(4-(2-(2-((cyclopropylmethyl)amino)-6-(2,6-dichloro-3,5-dimethoxyphenyl)-7-oxopyrido[2,3-d]pyrimidin-8(7H)-yl)ethyl)phenyl)acrylamide]: the IC50 was 1.8 nM on human recombinant FGFR1 and 4.6 nM in the experiment with SNU-16 cells.
As to `C=CC(=O)Nc1ccc(CCn2c(=O)c(-c3c(Cl)c(OC)cc(OC)c3Cl)cc3cnc(NC(C)(CO)CO)nc32)cc1` [Example 91, N-(4-(2-(6-(2,6-dichloro-3,5-dimethoxyphenyl)-2-((1,3-dihydroxy-2-methylpropan-2-yl)amino)-7-oxopyrido[2,3-d]pyrimidin-8(7H)-yl)ethyl)phenyl)acrylamide], the IC50 at human recombinant FGFR1 is 0.6 nM; in the experiment with SNU-16 cells it was 2.9 nM.
In the case of `C=CC(=O)Nc1ccc(CCn2c(=O)c(-c3c(Cl)c(OC)cc(OC)c3Cl)cc3cnc(NC(CC)(CO)CO)nc32)cc1` [Example 92, N-(4-(2-(6-(2,6-dichloro-3,5-dimethoxyphenyl)-2-((1-hydroxy-2-(hydroxymethyl)-butan-2-yl)amino)-7-oxopyrido[2,3-d]pyrimidin-8(7H)-yl)ethyl)phenyl)acrylamide], the values for the IC50 at human recombinant FGFR1 and with SNU-16 cells were 1.1 nM and 6.3 nM, respectively.
On to `C=CC(=O)Nc1ccc(CCn2c(=O)c(-c3c(Cl)c(OC)cc(OC)c3Cl)cc3cnc(NCC(C)(C)CO)nc32)cc1` [Example 93, N-(4-(2-(6-(2,6-dichloro-3,5-dimethoxyphenyl)-2-((3-hydroxy-2,2-dimethylpropyl)-amino)-7-oxopyrido[2,3-d]pyrimidin-8(7H)-yl)ethyl)phenyl)acrylamide], for which the results for the IC50 on human recombinant FGFR1 and with SNU-16 cells were 0.7 nM and 1.5 nM, respectively.
In the same order, the values of `C=CC(=O)Nc1ccc(CCn2c(=O)c(-c3c(Cl)c(OC)cc(OC)c3Cl)cc3cnc(NC(C)(C)CO)nc32)nc1` [Example 94, N-(6-(2-(6-(2,6-dichloro-3,5-dimethoxyphenyl)-2-((1-hydroxy-2-methylpropan-2-yl)amino)-7-oxopyrido[2,3-d]pyrimidin-8(7H)-yl)ethyl)pyridin-3-yl)acrylamide] are 2.1 nM and 7.4 nM.
For the molecule `C=CC(=O)Nc1ccc(CCn2c(=O)c(-c3c(Cl)c(OC)cc(OC)c3Cl)cc3cnc(NCC(C)(C)CO)nc32)nc1` [Example 97, N-(6-(2-(6-(2,6-dichloro-3,5-dimethoxyphenyl)-2-((3-hydroxy-2,2-dimethylpropyl)-amino)-7-oxopyrido[2,3-d]pyrimidin-8(7H)-yl)ethyl)pyridin-3-yl)acrylamide], the IC50 on human recombinant FGFR1 amounted to 1.5 nM; in the experiment on SNU-16 cells, 6.4 nM.
`C=CC(=O)Nc1ccc(CCn2c(=O)c(-c3c(Cl)c(OC)cc(OC)c3Cl)cc3cnc(NCC4(O)CCN(C)CC4)nc32)cc1` [Example 98, N-(4-(2-(6-(2,6-dichloro-3,5-dimethoxyphenyl)-2-(((4-hydroxy-1-methylpiperidin-4-yl)methyl)-amino)-7-oxopyrido[2,3-d]pyrimidin-8(7H)-yl)ethyl)phenyl)acrylamide]: the IC50 on human recombinant FGFR1 turned out to be 0.3 nM; in the experiment with SNU-16 cells, 16.4 nM.
In the case of `C=CC(=O)Nc1ccc(CCn2c(=O)c(-c3c(Cl)c(OC)cc(OC)c3Cl)cc3cnc(NC(C)(CO)CO)nc32)nc1` [Example 99, N-(6-(2-(6-(2,6-dichloro-3,5-dimethoxyphenyl)-2-((1,3-dihydroxy-2-methylpropan-2-yl)-amino)-7-oxopyrido[2,3-d]pyrimidin-8(7H)-yl)ethyl)pyridin-3-yl)acrylamide], the IC50 was determined as 1.2 nM on human recombinant FGFR1 and 2.6 nM in the experiment on SNU-16 cells.
Turning to `C#CCNc1ncc2cc(-c3c(Cl)c(OC)cc(OC)c3Cl)c(=O)n(CCc3ccc(NC(=O)C=C)cn3)c2n1` [Example 101, N-(6-(2-(6-(2,6-dichloro-3,5-dimethoxyphenyl)-7-oxo-2-(prop-2-yn-1-ylamino)-pyrido[2,3-d]pyrimidin-8(7H)-yl)ethyl)pyridin-3-yl)acrylamide], the figures for the IC50 on human recombinant FGFR1 and with SNU-16 cells were 0.3 nM and 1.6 nM, respectively.
Regarding `C=CC(=O)Nc1cccc(Cn2c(=O)c(-c3cc(OC)cc(OC)c3Cl)cc3cnc(NCCN4CCOCC4)nc32)c1` [Example 102, N-(3-((6-(2-chloro-3,5-dimethoxyphenyl)-2-((2-morpholinoethyl)amino)-7-oxopyrido[2,3-d]pyrimidin-8(7H)-yl)methyl)phenyl)acrylamide], the IC50 was found to be 1 nM at human recombinant FGFR1 and 3.9 nM in the experiment with SNU-16 cells.
Take `C=CC(=O)Nc1ccc(CCn2c(=O)c(-c3cc(OC)cc(OC)c3Cl)cc3cnc(NCC4CC4)nc32)nc1` [Example 103, N-(6-(2-(6-(2-chloro-3,5-dimethoxyphenyl)-2-((cyclopropylmethyl)amino)-7-oxopyrido[2,3-d]pyrimidin-8(7H)-yl)ethyl)pyridin-3-yl)acrylamide]: the IC50 was found to be 0.6 nM on human recombinant FGFR1 and 3.6 nM in the experiment with SNU-16 cells.
The matching figures for `C=CC(=O)Nc1ccc(CCn2c(=O)c(-c3cc(OC)cc(OC)c3Cl)cc3cnc(NCCO)nc32)nc1` [Example 104, N-(6-(2-(6-(2-chloro-3,5-dimethoxyphenyl)-2-((2-hydroxyethyl)amino)-7-oxopyrido[2,3-d]pyrimidin-8(7H)-yl)ethyl)pyridin-3-yl)acrylamide]: 0.8 nM and 13.4 nM.
As to `C=CC(=O)Nc1ccc(CCn2c(=O)c(-c3c(Cl)c(OC)cc(OC)c3Cl)cc3cnc(NN4CCN(C)CC4)nc32)cc1` [Example 105, N-(4-(2-(6-(2,6-dichloro-3,5-dimethoxyphenyl)-2-((4-methylpiperazin-1-yl)amino)-7-oxopyrido[2,3-d]pyrimidin-8(7H)-yl)ethyl)phenyl)acrylamide], the IC50 on human recombinant FGFR1 is 1.2 nM; with SNU-16 cells it was 7.8 nM.
The matching figures for `C=CC(=O)Nc1ccc(CCn2c(=O)c(-c3cc(OC)cc(OC)c3Cl)cc3cnc(NCC(C)(C)O)nc32)nc1` [Example 109, N-(6-(2-(6-(2-chloro-3,5-dimethoxyphenyl)-2-((2-hydroxy-2-methylpropyl)amino)-7-oxopyrido[2,3-d]pyrimidin-8(7H)-yl)ethyl)pyridin-3-yl)acrylamide]: 1.6 nM and 3.5 nM.

The values are drawn from US9630963B2, “Quinolone derivatives as fibroblast growth factor inhibitors” (Principia Biopharma, Inc., priority 2013, dated 2017).
